From patent US20250312499A1, “KISSPEPTIN RECEPTOR (KISS1R) TARGETED THERAPEUTICS AND USES THEREOF” (priority 2024, published 2025)
Numbered stars: 1 amine (or outer) side, 2 acyl side, 3 side chain; on linkers, the order of the positions; unused ones are H or OH. Square brackets hold non-standard residues; d marks the D form. Peptide text beside a SMILES is read from it. * marks the point of attachment. DOTA = O=C(O)CN1CCN(CC(=O)O)CCN(CC(=O)*)CCN(CC(=O)O)CC1; Gly(N-(3-F-4-Me-benzyl)) = Cc1ccc(CNCC(=O)*)cc1F; Propanoyl(3-(MeO(CH2CH2O)2)) = COCCOCCOCCC(=O)*; Api(1-amidino) = N=C(N)N1CCC(N)(C(=O)O)CC1; HO(CH2CH2O)2CH2CH2CO = O=C(CCOCCOCCO)*; X9 = O=C(CCOCCOCCOCCOCCOCCOCCOCCOCCO)*; X1 = O=C(CN1CCC(N[*:1])CC1)[*:2]; 4Pal = N[C@@H](Cc1ccncc1)C(=O)O; Cha = N[C@@H](CC1CCCCC1)C(=O)O; 4Amb = NCc1ccc(C(=O)O)cc1; Api = NC1(C(=O)O)CCNCC1; azaGly = NNC(=O)O

Target: human kisspeptin receptor (Homo sapiens (Human), UniProt Q969F8)
Assay: Human KISS1R binding assay (membrane competition binding)
Conditions: 90 min at room temperature; competition with 0.2 nM [125I]-metastin (45-54); Flp-In T-Rex 293 kisspeptin membranes; metal complexes nonradioactive Ga, In, Lu; read-out: hKiSSR Binding Ki (90 min)
Summary of the method: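 Radioligand competition: 0.2 nM [125I]-metastin (45-54) displaced by test ligand (usually 0–10,000 nM) over 90 min at room temperature, pH 7.4 buffer with 0.1% BSA. Receptor source is crude membrane (5–10 μg) from tetracycline-induced Flp-In T-Rex 293 cells. Bound label filtered and counted; Ki from non-linear regression.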

Chain of human kisspeptin receptor (Q969F8 whole entry): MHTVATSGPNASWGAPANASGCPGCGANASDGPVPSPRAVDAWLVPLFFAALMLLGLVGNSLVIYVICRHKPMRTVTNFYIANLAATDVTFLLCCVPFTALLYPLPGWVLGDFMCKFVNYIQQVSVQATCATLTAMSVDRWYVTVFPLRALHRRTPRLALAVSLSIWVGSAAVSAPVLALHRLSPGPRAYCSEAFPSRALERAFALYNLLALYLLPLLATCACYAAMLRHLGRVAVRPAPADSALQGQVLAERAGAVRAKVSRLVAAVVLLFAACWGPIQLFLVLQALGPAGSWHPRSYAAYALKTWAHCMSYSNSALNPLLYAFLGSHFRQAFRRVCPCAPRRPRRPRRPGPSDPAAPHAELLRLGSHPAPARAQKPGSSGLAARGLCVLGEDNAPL

Structure (SMILES)	Ki [nM]
Cc1ccc(CNCC(=O)N2CCC(NC(=O)[C@H](CC(C)C)NC(=O)NNC(=O)[C@H](Cc3ccccc3)NC(=O)CN3CCC(NC(=O)CN4CCN(CC(=O)O)CCN(CC(=O)O)CCN(CC(=O)O)CC4)CC3)(C(=O)N[C@@H](Cc3ccc(O)cc3)C(N)=O)CC2)cc1F [Compound 247] ({DOTA}-[X1]F[azaGly]L[Api](Gly(N-(3-F-4-Me-benzyl)))Y-NH2)	< 10
Cc1ccc(CNCC(=O)N2CCC(NC(=O)[C@H](CC(C)C)NC(=O)NNC(=O)[C@H](Cc3ccccc3)NC(=O)CN3CCC(NC(=O)CN4CCN(CC(=O)O)CCN(CC(=O)O)CCN(CC(=O)O)CC4)CC3)(C(=O)N[C@@H](Cc3c[nH]cn3)C(N)=O)CC2)cc1F [Compound 248] ({DOTA}-[X1]F[azaGly]L[Api](Gly(N-(3-F-4-Me-benzyl)))H-NH2)	> 100
Cc1ccc(CNCC(=O)N2CCC(NC(=O)[C@H](CC(C)C)NC(=O)NNC(=O)[C@H](Cc3ccccc3)NC(=O)[C@@H](NC(=O)[C@H](CC(N)=O)NC(=O)CN3CCC(NC(=O)CN4CCN(CC(=O)O)CCN(CC(=O)O)CCN(CC(=O)O)CC4)CC3)[C@@H](C)O)(C(=O)N[C@@H](Cc3ccc(O)cc3)C(N)=O)CC2)cc1F [Compound 249] ({DOTA}-[X1]NTF[azaGly]L[Api](Gly(N-(3-F-4-Me-benzyl)))Y-NH2)	< 10
Cc1ccc(CNCC(=O)N2CCC(NC(=O)[C@H](CC(C)C)NC(=O)NNC(=O)[C@H](Cc3ccccc3)NC(=O)[C@@H](NC(=O)CN3CCC(NC(=O)CN4CCN(CC(=O)O)CCN(CC(=O)O)CCN(CC(=O)O)CC4)CC3)[C@@H](C)O)(C(=O)N[C@@H](Cc3ccc(O)cc3)C(N)=O)CC2)cc1F [Compound 250] ({DOTA}-[X1]TF[azaGly]L[Api](Gly(N-(3-F-4-Me-benzyl)))Y-NH2)	< 10
Cc1ccc(CNCC(=O)N2CCC(NC(=O)[C@H](CC(C)C)NC(=O)NNC(=O)[C@H](Cc3ccccc3)NC(=O)[C@@H](NC(=O)[C@H](CCCCNC(=O)CN3CCN(CC(=O)O)CCN(CC(=O)O)CCN(CC(=O)O)CC3)NC(=O)CCOCCOCCO)[C@@H](C)O)(C(=O)N[C@@H](Cc3ccncc3)C(N)=O)CC2)cc1F [Compound 251] ({HO(CH2CH2O)2CH2CH2CO}-K(DOTA)TF[azaGly]L[Api](Gly(N-(3-F-4-Me-benzyl)))[4Pal]-NH2)	> 100
Cc1ccc(CNCC(=O)N2CCC(NC(=O)[C@H](CC(C)C)NC(=O)NNC(=O)[C@H](Cc3ccncc3)NC(=O)[C@@H](NC(=O)[C@H](CC(N)=O)NC(=O)CN3CCC(NC(=O)CN4CCN(CC(=O)O)CCN(CC(=O)O)CCN(CC(=O)O)CC4)CC3)[C@@H](C)O)(C(=O)N[C@@H](Cc3ccncc3)C(N)=O)CC2)cc1F [Compound 258] ({DOTA}-[X1]NT[4Pal][azaGly]L[Api](Gly(N-(3-F-4-Me-benzyl)))[4Pal]-NH2)	> 100
Cc1ccc(CNCC(=O)N2CCC(NC(=O)[C@H](CC(C)C)NC(=O)NNC(=O)[C@H](Cc3ccncc3)NC(=O)[C@@H](NC(=O)[C@H](CC(N)=O)NC(=O)c3ccc(CNC(=O)CN4CCN(CC(=O)O)CCN(CC(=O)O)CCN(CC(=O)O)CC4)cc3)[C@@H](C)O)(C(=O)N[C@@H](Cc3ccncc3)C(N)=O)CC2)cc1F [Compound 259] ({DOTA-4Amb}-NT[4Pal][azaGly]L[Api](Gly(N-(3-F-4-Me-benzyl)))[4Pal]-NH2)	10 to 100
Cc1ccc(CNCC(=O)N2CCC(NC(=O)[C@@H](CC(C)C)NC(=O)NNC(=O)[C@H](Cc3ccccc3)NC(=O)c3ccc(CNC(=O)CN4CCN(CC(=O)O)CCN(CC(=O)O)CCN(CC(=O)O)CC4)cc3)(C(=O)N[C@@H](Cc3c[nH]c4ccccc34)C(N)=O)CC2)cc1F [Compound 260] ({DOTA-4Amb}-F[azaGly][dL][Api](Gly(N-(3-F-4-Me-benzyl)))W-NH2)	10 to 100
Cc1ccc(CNCC(=O)N2CCC(NC(=O)[C@H](CC(C)C)NC(=O)NNC(=O)[C@H](CC3CCCCC3)NC(=O)c3ccc(CNC(=O)CN4CCN(CC(=O)O)CCN(CC(=O)O)CCN(CC(=O)O)CC4)cc3)(C(=O)N[C@@H](Cc3c[nH]c4ccccc34)C(N)=O)CC2)cc1F [Compound 261] ({DOTA-4Amb}-[Cha][azaGly]L[Api](Gly(N-(3-F-4-Me-benzyl)))W-NH2)	< 10
COCCOCCOCCC(=O)N[C@@H](CCCCNC(=O)CN1CCN(CC(=O)O)CCN(CC(=O)O)CCN(CC(=O)O)CC1)C(=O)N[C@@H](CC(N)=O)C(=O)N[C@H](C(=O)N[C@@H](Cc1ccccc1)C(=O)NNC(=O)N[C@@H](CC(C)C)C(=O)NC1(C(=O)N[C@@H](Cc2c[nH]c3ccccc23)C(N)=O)CCN(C(=N)N)CC1)[C@@H](C)O [Compound 264] ({Propanoyl(3-(MeO(CH2CH2O)2))}-K(DOTA)NTF[azaGly]L[Api(1-amidino)]W-NH2)	< 10

Continued, values first:

Ki [nM]	Structure (SMILES)
> 100	Cc1ccc(CNCC(=O)N2CCC(NC(=O)[C@H](CC(C)C)NC(=O)NNC(=O)[C@H](Cc3ccccc3)NC(=O)[C@@H](NC(=O)[C@H](CCC(=O)O)NC(=O)[C@H](CCCCNC(=O)CN3CCN(CC(=O)O)CCN(CC(=O)O)CCN(CC(=O)O)CC3)NC(=O)CCOCCOCCO)[C@@H](C)O)(C(=O)N[C@@H](Cc3ccncc3)C(N)=O)CC2)cc1F [Compound 252] ({HO(CH2CH2O)2CH2CH2CO}-K(DOTA)ETF[azaGly]L[Api](Gly(N-(3-F-4-Me-benzyl)))[4Pal]-NH2)
< 10	Cc1ccc(CNCC(=O)N2CCC(NC(=O)[C@H](CC(C)C)NC(=O)NNC(=O)[C@H](Cc3ccccc3)NC(=O)[C@@H](NC(=O)[C@H](CC(N)=O)NC(=O)[C@H](CCCCNC(=O)CN3CCN(CC(=O)O)CCN(CC(=O)O)CCN(CC(=O)O)CC3)NC(=O)CCOCCOCCO)[C@@H](C)O)(C(=O)N[C@@H](Cc3ccncc3)C(N)=O)CC2)cc1F [Compound 253] ({HO(CH2CH2O)2CH2CH2CO}-K(DOTA)NTF[azaGly]L[Api](Gly(N-(3-F-4-Me-benzyl)))[4Pal]-NH2)
< 10	Cc1ccc(CNCC(=O)N2CCC(NC(=O)[C@H](CC(C)C)NC(=O)NNC(=O)[C@H](Cc3ccccc3)NC(=O)[C@@H](NC(=O)[C@H](CC(N)=O)NC(=O)[C@@H](CCCCNC(=O)CN3CCN(CC(=O)O)CCN(CC(=O)O)CCN(CC(=O)O)CC3)NC(=O)CCOCCOCCO)[C@@H](C)O)(C(=O)N[C@@H](Cc3ccncc3)C(N)=O)CC2)cc1F [Compound 254] ({HO(CH2CH2O)2CH2CH2CO}-[dK](DOTA)NTF[azaGly]L[Api](Gly(N-(3-F-4-Me-benzyl)))[4Pal]-NH2)
< 10	COCCOCCOCCC(=O)N[C@@H](CCCCNC(=O)CN1CCN(CC(=O)O)CCN(CC(=O)O)CCN(CC(=O)O)CC1)C(=O)N[C@@H](CC(N)=O)C(=O)N[C@H](C(=O)N[C@@H](Cc1ccccc1)C(=O)NNC(=O)N[C@@H](CC(C)C)C(=O)NC1(C(=O)N[C@@H](Cc2ccncc2)C(N)=O)CCN(C(=O)CNCc2ccc(C)c(F)c2)CC1)[C@@H](C)O [Compound 255] ({Propanoyl(3-(MeO(CH2CH2O)2))}-K(DOTA)NTF[azaGly]L[Api](Gly(N-(3-F-4-Me-benzyl)))[4Pal]-NH2)
< 10	Cc1ccc(CNCC(=O)N2CCC(NC(=O)[C@H](CC(C)C)NC(=O)NNC(=O)[C@H](Cc3ccccc3)NC(=O)[C@@H](NC(=O)[C@H](CC(N)=O)NC(=O)[C@H](CCCCNC(=O)CN3CCN(CC(=O)O)CCN(CC(=O)O)CCN(CC(=O)O)CC3)NC(=O)CCOCCOCCOCCOCCOCCOCCOCCOCCO)[C@@H](C)O)(C(=O)N[C@@H](Cc3ccncc3)C(N)=O)CC2)cc1F [Compound 256] (X9-K(DOTA)NTF[azaGly]L[Api](Gly(N-(3-F-4-Me-benzyl)))[4Pal]-NH2)
